In patent US12697411B2, “In-situ film-forming composition” (priority 2021, dated 2026):

Assay: Stability of the disinfectant (LAE) in contact with the polyamide lacquer, LC-MS of the film
Type: physicochemical
Details: Spray 1 (composition of Example 1) in polyamide-lacquered container, 3 months at 50° C.; LAE measured in film
Procedure: Besides, the stability of the disinfectant (LAE) present in the composition of Example 1 of the present invention in contact with the polyamide lacquer of the container was measured. Full containers loaded with Spray 1 of the present invention were controlled at 50° C. for 3 months, at 40° C. form 4 to 9 months, and at 30° C. from 6 to 18 months. After that time, the composition was applied to a surface to form the adherent film, in which the amount of LAE was calculated (mg of LAE/g of film).
The method for calculating the amount of LAE consists of a liquid chromatography-mass spectrometry (LC-MS) analysis of the tested sample previously sprayed into a container (glass flask) and dried into a rotary evaporator. The exact and constant weight of the residue is determined. This residue is dissolved in Acetonitrile and doped with a known volume solution of a solution f the internal pattern (Dodine, commercially available) in a known concentration. Then it is stirred and then, pure water at pH 3-4 (acidified with HCl) is added still flushing, this allows precipitating the polymer. The supernatant is filtered and punctured by LC-MS.
• Detector: ACQ-QDa mass Detector • Column: Kromasil 100-5-C18 150×4.0 mm. (5 μm, 100 Å) • System design: Mobil phase entrance-Column-PDA entrance-QDa entrance-Waste Exit
• Fluxe: 1.00 mL/min. […]

reduction of the amount of disinfectant (LAE): about 11%
Compound: CCCCCCCCCCCC(=O)N[C@@H](CCCN=C(N)N)C(=O)OCC.Cl [LAE, Ethyl lauroyl arginate hydrochloride salt]
